In patent US12496289B2, “Methods of increasing magnesium bioavailability and absorption” (Balchem Corporation, priority 2020, dated 2025):

Key:
Caco-2 cells [1] = experiment: Caco-2 cell viability with ascorbic acid (fluorescent probes); assay type: cell-based; conditions: 0, 5, 25, or 50 mM ascorbic acid for 240 min; cells propagated 14 days
Procedure: FIG. 5 depicts a graph illustrating the viability over time of cells incubated with various solutions. Caco-2 cells were propagated in T-75 tissue culture flasks for 14 days. The cells were then incubated with either 0, 5, 25, or 50 mM ascorbic acid for 240 min. Fluorescent probes were used to determine viability.
Experiments were performed to test the impact of various ascorbic acid concentrations on cell viability. Caco-2 cells were propagated in T-75 tissue culture flasks for 14 days. The cells were then incubated with either 0, 5, 25, or 50 mM ascorbic acid for 240 min. Fluorescent probes were used to determine viability.

Caco-2 cells [2] = experiment: Caco-2 in vitro magnesium transport assay; conditions: for Magnesium transport with increasing treatment concentration: 0, 5, 10, 15, 20, and 25 mg Mg (ascorbate or chloride)
Procedure: Caco-2 cells were used to model in vitro magnesium absorption of intestinal cells. […] Six different solutions, with magnesium and varying ratios of ascorbate were tested. Each solution comprised 20 mM of magnesium. Cells were exposed to one of the six solutions for 4 hours, then the basal media was analyzed for magnesium, using a colorimetric test.
Various magnesium solutions were tested to determine their impact on magnesium transport: magnesium ascorbate, magnesium bisglycinate, magnesium orotate, magnesium threonate, and magnesium malate (trihydrate and hexahydrate; abbreviated MgM3H20 or MgM6H20 respectively in FIG. 2). […] (see FIG. 2)
Six different treatment concentrations were tested: 0, 5, 10, 15, 20, and 25 mg Mg (ascorbate or chloride).

Compound | Cell viability (Caco-2 cells [1]) | Magnesium transport with increasing treatment concentration (Caco-2 cells [2]; FIG. 3) | Magnesium transport compared with magnesium chloride at any given concentration tested (Caco-2 cells [2]; 0, 5, 10, 15, 20, and 25 mg Mg, FIG. 3) | Magnesium transport rate compared with other magnesium solutions (Caco-2 cells [2]; vs magnesium bisglycinate, orotate, threonate, malate (trihydrate and hexahydrate), FIG. 2)
O=C1O[C@H]([C@@H](O)CO)C(O)=C1O [ascorbic acid] | no conclusive evidence that ascorbic acid kills the cells |  |  | 
magnesium ascorbate |  | significant jump in magnesium transport between the 10 mM treatment and the 15 mM treatment | greater magnesium transport than magnesium chloride | statistically significant higher transport rate than any other magnesium solution tested
[Cl-].[Cl-].[Mg+2] [magnesium chloride, reference compound] |  | increased magnesium transport, in a linear fashion |  | 
